Source: patent US20240261296A1, “THERAPEUTIC MODALITIES FOR INHIBITING PANCREATIC BETA CELL IMPAIRMENT AND TREATING DIABETES” (Hadasit Medical Research Serices & Development Ltd., priority 2021, published 2024)

Experiments:
[1] = tested on: human islet cells; experiment: Caspase-Glo 3/7 assay in palmitic acid-treated human islets; assay type: cell-based; set-up: rescuing human islet cells from apoptosis, compared with L-798106 / inhibiting or reversing palmitate-induced apoptosis in pancreatic islets of both human donors / inhibition of palmitate-induced apoptosis in human islets, donor 1: dose or concentration left out as unconfirmed; details: palmitic acid, 48 h; for rescuing human islet cells from apoptosis, compared with L-798106: two human donors
Method: (§1) Islet and cell culture: The pancreatic β-cell line MIN6, which is a clonal murine insulin-secreting line, was cultured in DMEM (Biological Industries, Beit Haemek, Israel) supplemented with 11 mM Glucose, 2 mM glutamine, 15% heat-inactivated fetal calf serum (FCS), 100 U/ml penicillin, 100 µg/ml streptomycin and 61 μM β-mercaptoethanol. Human islets were obtained from the European Consortium for Islet Transplantation (ECIT) at the San Raffaele Hospital and from the Niguarda Hospital, (Milan, Italy) and cultured in CMRL-1066 media (Biological Industries, Beit HaEmek, Israel) supplemented with 10% FCS, 5.5 mM glucose, 2 mM L-Glutamine, 100 U/ml penicillin, 100 μg/ml streptomycin and 150 μg/ml gentamycin. Palmitate was added to 1% FCS and 0.5% defatted BSA (Roche, Germany).
Next, the ability of the compounds to rescue human islet cells from palmitate-induced apoptosis was determined. To this end, the Caspase-Glo 3/7 assay reagent (Promega) was used for caspase 3/7 detection in palmitic acid-treated cells. The reagent provides a proluminescent caspase-3/7 substrate, which contains the tetrapeptide sequence DEVD, in combination with luciferase and a cell-lysing agent. The addition of the reagent directly to the wells results in cell lysis, followed by caspase cleavage of the DEVD substrate, and the generation of luminescence.
Accordingly, human islets from two donors were exposed to the various compounds or to L-798106 for 48 h in the presence of palmitic acid, and the bioluminescence was measured as compared to control cells. FIGS. 3A-3B show the results of the treatment with […] of the compounds in two human donors (FIG. 3A—donor 1, FIG. 3B—donor 2). PA: Palmitate; L: L-798106; RLU: Relative Light Units. The results are average of triplicates or quadruplicates ±SEM (except in islets from L-798106 treated donor 2, representing duplicates).
Next, various concentrations of the compounds were tested in human pancreatic islet cells. Cells obtained from the first healthy donor (donor 1) were incubated in the presence or absence of PA with C13, C5 or L-798106 (L) at concentrations of 5, 2.5 and 0.5 μM. Caspase 3/7 enzymatic activity was measured as described above. The enzymatic activity is presented in FIG. 5A for 5 μM, FIG. 5B for 2.5 μM and FIG. 5C for 0.5 μM as relative light units (RLU/μg protein) and the graphs represent the average of n=3-4.

[2] = tested on: db/db mice; experiment: random blood glucose levels in db/db and control mice; assay type: in vivo; details: for average random blood glucose levels in db/db mice: 8 weeks gavage, compared to the vehicle; for random blood glucose levels at 8 weeks: compared with L-798106 treated mice
Method: The effects of the compounds were tested in an in vivo model of diabetes. To this end, C57BLKS/J mice with the leptin receptor mutation (BKS-db; BKS.Cg-Dock7m+/+Leprdb/J), known as an animal model characteristic of human T2DM, were used, when both male and female homozygotes to Leprb mutation (db/db) develop spontaneous T2DM with phenotypes that include: (I) severe obesity, (II) progressive and sustained hyperglycemia, when the course of the disease is markedly influenced by genetic background BLKS (in contrast to regular C57BL/6J background mice with the same mutation (B6-db), (III) glucose intolerance resulting in elevated serum cholesterol, glucose, and triglycerides, and (VI) elevations of plasma blood sugar resulting in severe depletion of the insulin-producing β-cells of the pancreatic islets, and eventually death.
Two sets of experiments with two colonies of homozygote mice were performed with the C5 and C13 compounds (n=5 for each experiment), compared to L-798106. The compounds were administered to 7-8-week-old mice by oral gavage (2.5 mg/kg/day) for eight weeks. Control group (n=10-15) received vehicle (DMSO in PBS). Blood glucose was randomly tested throughout the experiment.
To test the effect of the compounds C15, C17 and C20 on random blood glucose levels, control and db/db mice underwent essentially the same treatment course and measurements as described in Example 9.

[3] = tested on: MIN6 cells; experiment: rescue of MIN6 cells from palmitate-induced apoptosis (cleaved caspase 3 western blot; FACS SubG1); assay type: cell-based, murine; details: palmitic acid 0.3 mM, 48 hours; compared to L-798106
Method: as §1
Western blotting: Cells were lyzed in Laemmli protein sample buffer, separated on SDS-polyacrylamide gel, and transferred to […] nitrocellulose membranes (Schleicher and Schuell, Dassel, Germany). After blocking in 5% dried skimmed milk, the membranes were first incubated with the appropriate antibodies against: cleaved caspase-3 (Asp175) (Cell Signaling Technology Danvers, MA) and α-tubulin (Sigma-Aldrich.) and then with horseradish peroxidase conjugated anti-rabbit or anti-mouse IgG, followed by analysis with an enhanced chemiluminescence detection kit (Biological Industries, Israel).
The remaining compounds were screened for the ability to rescue β-cells from palmitate-induced apoptosis as compared to the commercial EP3 antagonist L-798106 by measuring the levels of the cleaved caspase 3 apoptotic marker, using Western Blot analysis (FIG. 1). […] Cell extracts were analyzed by western blotting for the presence of cleaved caspase 3 as compared to α-Tubulin.
The ability of the compounds to rescue β-cells from apoptosis was also evaluated using FACS analysis and measuring the SubG1 population (FIG. 2). […] Collected cells were analyzed by FACS and the SubG1 fractions (representing apoptotic cell products or components were compared. The average of 4-6 independent experiments is presented in FIG. 2.

[4] = tested on: db/db mice; experiment: intraperitoneal glucose tolerance test (IPGTT); assay type: in vivo; details: 8 weeks oral 2.5 mg/kg/day; glucose 1 g/kg; all time points; vs vehicle
Method: Lepr^db/db homozygotes (db/db) and heterozygote Lepr^db/+ (wild type) mice were treated daily with 2.5 mg/kg/day oral administration of the Vehicle, the commercial EP3 antagonist L-798106 and the compounds C5 and C13 for 8 weeks, as described in Example 9. A glucose tolerance test (Intraperitoneal glucose tolerance test, IPGTT) was performed following four weeks and eight weeks of the onset of treatment, as follows. Glucose (1 g/kg) was injected following 8 hours of fasting, and blood glucose was measured at baseline and at 30-, 60-, 90- and 120-minutes post glucose administration.
Heterozygote (wild type) and diabetic db/db mice were treated daily with the Vehicle, L-798106 and the compounds C17 and C20 for 8 weeks, essentially as described in Example 9. A glucose tolerance test (IPGTT) was performed essentially as described in Example 10.

[5] = tested on: db/db mice; experiment: Insulin Tolerance Test (ITT); assay type: in vivo; details: 8 weeks oral treatment; 0.75 U/kg insulin; all time points; vs vehicle
Method: An Insulin Tolerance Test (ITT) was conducted to determine the effect of the test compounds on insulin resistance, following oral administration of Vehicle or the tested compounds as described in Example 9. To this end, the different treated groups were further subjected to a subsequent 5-hour fast and then injected with 0.75 U/kg insulin. Blood glucose was measured at the time of insulin injection (baseline level) and at the indicated time intervals thereafter. Blood glucose levels and AUC of the wild-type mice are presented in FIGS. 19A-19B respectively, and blood glucose levels and AUC of the db/db mice are presented in FIGS. 19C-19D respectively. The different test groups as presented in FIGS. 19A-19D are represented as described in Example 9.
To determine the effect of the C17 and C20 compounds on insulin resistance, an ITT was conducted essentially as described in Example 11. Blood glucose levels and AUC of the wild-type mice are presented in FIGS. 27A-27B respectively (n=5-15), and blood glucose levels and AUC of the db/db mice are presented in FIGS. 27C-27D respectively (n=5-10). The different test groups as presented in FIGS. 27A-27D are represented as described in Example 14.

[6] = blood insulin concentrations by serum C-peptide ELISA; assay type: in vivo; details: 8 weeks oral treatment; vs vehicle-treated diabetic mice
Method: At the end of the 8 week-long period of treatment as described in Example 9, mice were sacrificed and blood samples were collected, and analyzed for different parameters as detailed below.
Blood insulin concentrations.
Blood insulin concentrations. Following 8 weeks of treatment, blood samples were collected and the levels of insulin in the collected sera were assessed essentially as described in Example 12. The results are presented in FIG. 28, in which the different test groups as presented in FIG. 28 are represented as described in Example 14 and “ns” indicates non-significant differences. The numbers of tested mice are as follows: vehicle (n=10), L-798106 (n=10), C17 (n=5), C20 (n=5).

[7] = tested on: pancreatic β-cell; details: chow and high-fat diet islets; cited from earlier work

## Cc1n[nH]c(C)c1S(=O)(=O)Nc1ccccc1C(=O)N[C@@H](C)c1ccccc1 [Compound C4, (S)-2-((3,5-dimethyl-1H-pyrazole)-4-sulfonamido)-N-(1-phenylethyl)benzamide]
[1]
  inhibition of palmitate-induced apoptosis in human islets, donor 1: moderate inhibitory activity comparable to that of L-798106

## Cc1nn(C)c(C)c1C[C@@H](C)NC(=O)c1ccc(S(=O)(=O)Nc2ccccc2F)cc1 [Compound C9, (R)-4-(N-(2-fluorophenyl)sulfamoyl)-N-(1-(1,3,5-trimethyl-1H-pyrazol-4-yl)propan-2-yl)benzamide]
[1]
  inhibition of palmitate-induced apoptosis in human islets, donor 1: marked inhibitory activity

## CCn1nc(C)c(S(=O)(=O)Nc2ccc(Cl)cc2C(=O)c2ccc[nH]2)c1C [Compound C10, N-(4-chloro-2-(1H-pyrrole-2-carbonyl)phenyl)-1-ethyl-3,5-dimethyl-1H-pyrazole-4-sulfonamide]
[1]
  inhibiting or reversing palmitate-induced apoptosis in pancreatic islets of both human donors: failed to inhibit

## COc1ccc([C@@H](CC(=O)O)NC(=O)c2cn(Cc3cccc(F)c3)nn2)cc1OC [Compound C12, (R)-3-(3,4-dimethoxyphenyl)-3-(1-(3-fluorobenzyl)-1H-1,2,3-triazole-4-carboxamido)propanoic acid]
[1]
  rescuing human islet cells from apoptosis, compared with L-798106: to a greater extent than the EP3 antagonist L-798106

## COc1cc(/C=C(\CCC(=O)O)c2nc3ccccc3s2)ccc1OCc1ccccc1 [Compound C15, (E)-4-(benzo[d]thiazol-2-yl)-5-(4-(benzyloxy)-3-methoxyphenyl)pent-4-enoic acid]
[1]
  rescuing human islet cells from apoptosis, compared with L-798106: to a greater extent than the EP3 antagonist L-798106
[2]
  average random blood glucose levels in db/db mice: effective in lowering average blood glucose levels

## COc1cc(/C=C(/CC(=O)O)c2nc3ccccc3s2)ccc1OCc1cccc(C(F)(F)F)c1 [Compound C17, (Z)-3-(benzo[d]thiazol-2-yl)-4-(3-methoxy-4-((3-(trifluoromethyl)benzyl)oxy)phenyl)but-3-enoic acid]
[3]
  rescue of β-cells from palmitate-induced apoptosis (cleaved caspase 3; SubG1 population): exceptionally high efficacy
[1]
  rescuing human islet cells from apoptosis, compared with L-798106: to a greater extent than the EP3 antagonist L-798106
[2]
  average random blood glucose levels in db/db mice: effective in lowering average blood glucose levels
  random blood glucose levels at 8 weeks: the same blood glucose levels as the L-798106 treated mice
[4]
  hyperglycemia in IPGTT, db/db mice: significantly alleviated hyperglycaemia
[5]
  glucose levels after insulin injection (insulin sensitivity), db/db mice: Improve Insulin Sensitivity
[6]
  blood insulin levels (serum C-peptide) in diabetic mice: the differences did not reach statistical significance

## COc1cc(/C=C(\CCC(=O)O)c2nc3ccccc3s2)ccc1OCc1ccc(F)cc1 [Compound C20, (E)-4-(benzo[d]thiazol-2-yl)-5-(4-((4-fluorobenzyl)oxy)-3-methoxyphenyl)pent-4-enoic acid]
[1]
  rescuing human islet cells from apoptosis, compared with L-798106: to a greater extent than the EP3 antagonist L-798106
[2]
  average random blood glucose levels in db/db mice: effective in lowering average blood glucose levels
  random blood glucose levels at 8 weeks: the same blood glucose levels as the L-798106 treated mice
[4]
  hyperglycemia in IPGTT, db/db mice: significantly alleviated hyperglycaemia
[5]
  glucose levels after insulin injection (insulin sensitivity), db/db mice: Improve Insulin Sensitivity
[6]
  blood insulin levels (serum C-peptide) in diabetic mice: the differences did not reach statistical significance

## C=C1C(=O)OC(CCCCCCCC)C1C(=O)O (stereo not drawn) [Compound C75]
[7]
  glucose-induced insulin secretion: markedly reduced
  β cell electrical activity: markedly reduced
